Measurements: US8377991B2, “Trans-clomiphene for metabolic syndrome” (priority 2007, dated 2013)
Counter-ions that a name gives are not always drawn.

Assays:
[1] = in vivo
Description: Adult, male, Baboons were given 1.5 mg/kg of Clomid (clomiphene citrate), Enclomid (trans-Clomiphene) or Zuclomid (cis-clomiphene) for 12 consecutive days. The samples analyzed were sera taken on the day of first treatment before being given test article (day 0), after 12 days of treatment (day 12) and 7 days after the last treatment (end or wash-out).

total serum testosterone = test: Serum testosterone in male baboons given Clomid, Enclomid or Zuclomid; format: in vivo; settings: for effect on total serum testosterone: 1.5 mg/kg for 12 days, vs baseline or day 0
Description: There were significant increases in total serum testosterone in the group receiving Enclomid. There were no differences among groups in the baseline period or at day 0. There were also no differences among the three groups 7 days after treatment (the washout period). However, Enclomid produced higher levels of testosterone compared to Clomid and Zuclomid on day 6 (p=0.03 and p=0.00002 respectively) and compared to Zuclomid on day 12 (p=0.047). […] Enclomid was clearly better and more consistent than Clomid itself and Zuclomid was ineffective.

[2] = Androxal vs Androgel study: other clinical chemistry (DHT/TT, triglycerides) and side effects; format: in vivo; settings: hypogonadal men, after two weeks of therapy; non-dose dependent
fasting glucose levels = settings: patients with BMI>26; 50 mg dose; at the 3 and 4.5 month periods
Description: A placebo controlled study was conducted to determine the effects of orally administered Androxal™ (trans-clomiphene) and Androgel® on blood glucose levels.
The study enrolled hypogonadal men (testosterone less than 300 ng/dl) with a broad range of body mass indices (BMI). […] The placebo and Androxal™ doses were administered in a double blind fashion. The Androgel® cream was administered in an open label fashion. Fasting glucose levels were monitored in the patients immediately prior to treatment (baseline) and at regular intervals during the study.

serum LH, FSH, PRL = test: Body weight and serum LH, FSH, PRL in male baboons; format: in vivo; settings: during the study
Description: There were no changes in serum LH or FSH. […] There was also no change in body weight during the 12 day study.

total testosterone = settings: hypogonadal men; 50 mg dose
Description: (§1) A placebo controlled challenge study was conducted at the Advanced Biological Research, Inc. (ABR) Clinical Research Center in Hackensack, N.J. to compare orally administered Androxal™ (trans-clomiphene) to Androgel® in hypogonadal men.
(§2) Half of the men in each of the Androxal™ and placebo arms were randomized into cohorts that underwent in-clinic sessions on days 1 and 14 to determine pharmacokinetic parameters for Androxal™ as well as cyclical changes in testosterone. The placebo and Androxal™ doses were administered in a double blind fashion. The Androgel® cream was administered in an open label fashion. Half of the Androgel® patients underwent in-clinic sessions similar to the other patients in the study. Following the two week drug exposure, patients were followed for an additional seven to ten days to determine the status of their testosterone levels.

serum LH and FSH = settings: hypogonadal male subjects, two week treatment
Description: as §1, §2

Structure (SMILES) | serum alkaline phosphatase (ALP) [1] | serum carbon dioxide [1] | effects on the red blood cell population ([1]; 1.5 mg/kg) | increase in serum glucose ([1]; 1.5 mg/kg) | ALT/SGPT [1] | BUN and BUN/creatinine [1] | effect on total serum testosterone (total serum testosterone) | reduction in triglycerides, average decrease [2] [%] | reduction in serum glucose from baseline (fasting glucose levels) [mg/dL] | percent of granulocytes in the blood [1] | platelet count [1] | counts of eosinophiles ([1]; 1.5 mg/kg) | serum prolactin (PRL) (serum LH, FSH, PRL) | mean total testosterone after 15 days (total testosterone) [ng/dL] | total serum testosterone after cessation of treatment (total serum testosterone; day 12 to day 18 (washout)) | serum levels of FSH (serum LH and FSH)
CCN(CC)CCOc1ccc(/C(=C(/Cl)c2ccccc2)c2ccccc2)cc1 [Zuclomid, cis-clomiphene] | not elevated | higher than reference values on day 12 | substantive effects on the red blood cell population | within the normal range | – | – | – | – | – | – | – | – | – | – | – | –
CCN(CC)CCOc1ccc(C(=C(Cl)c2ccccc2)c2ccccc2)cc1 [Clomid, clomiphene citrate] | – | higher than reference values on day 12 | – | within the normal range | out of range low at the end of the study | altered during the study | more variable total testosterone levels on day 6 and later | – | – | – | – | – | – | – | – | –
CCN(CC)CCOc1ccc(/C(=C(\Cl)c2ccccc2)c2ccccc2)cc1 [Enclomid, trans-clomiphene] | decreased in value | – | substantive effects on the red blood cell population | no increases with treatment | – | altered during the study | significantly and statistically raised total serum testosterone on days 6 and 12 | 19.1 | ~24 | strong effect of Enclomid on lowering the percent of granulocytes | pushed the platelet count to its normal male level | raising the counts of lymphocytes and eosinophiles | decrease in serum prolactin (PRL) | 589 ± 172 | significant drop in the level of total serum testosterone between day 12 and day 18 | boosts serum FSH
